Results published in patent US20240425497A1, “Cbl-b Inhibitors and Methods of Use Thereof” (ARCUS BIOSCIENCES, INC., priority 2023, published 2024).

Key:
[1] = target: Cbl-b (Homo sapiens (Human), UniProt Q13191); assay: Cbl-b probe displacement HTRF binding assay; conditions: 0.4 nM biotinylated Cbl-b, 150 nM BODIPY probe
Method: The affinity with which compounds of the present disclosure bind to Cbl-b was assessed using probe displacement homologous time resolved fluorescence (HTRF) assays. The assays used a BODIPY™ conjugated probe (Example 54 from WO 2020264398) and biotinylated Cbl-b. The assays were performed in assay buffer consisting of 20 mM Hepes, 150 mM NaCl, 0.01% Triton X-100, 0.5 mM TCEP, 0.01% BSA. On the day of the assay, a 20 point, 1:2 master serial dilution of each compound was prepared in DMSO to span a final concentration range of 10 μM to 0 nM. Two hundred nanoliters of diluted compound was added to each well of a 384-well plate. Fifteen microliters of biotinylated-Cbl-b resuspended in assay buffer were added to each well and the plate incubated for 60 minutes at room temperature prior to addition of 5 μL of BODIPY™ probe in assay buffer. Final assay conditions included 0.4 nM of Cbl-b and 150 nM of BODIPY™ probe. After a further 15 minutes of incubation at room temperature, 5 μl of Streptavidin-Terbium cryptate reagent at 5-fold final concentration was added to each well of the 384-well plate. Binding of a probe to Cbl-b results in an increase of HTRF signal. HTRF signal was measured by Envision plate reader, while competition of a compound of the present disclosure with probe results in a decrease of signal. Percentage maximum activity in each test well was calculated based on DMSO (maximum activity, 0% displacement) and no protein control wells (baseline activity, 100% displacement). Binding affinity was determined from a dose response curve fitted using a standard four parameter fit equation. See Table 3 for data for compounds (Cbl-b Binding (IC50)).

[2] = test system: Jurkat cells; assay: IL-2 secretion assay in CD3/CD28-activated Jurkat cells (AlphaLISA); assay type: cell-based, human; conditions: Homo sapiens, CD3/CD28 activation, 24 h
Method: Certain compounds were also evaluated in an IL-2 secretion assay. On the day of the assay, a 16 point, 1:2 master serial dilution of each compound was prepared in Opti-MEM to span a final concentration range of […]. Assays were set up in CORNING® tissue culture-treated 384-well microplates containing 60 nL of each dilution. Jurkat cells grown in RPMI-1640 supplemented with 10% FBS, 1% Glutamax, and 1% Pen/Strep were collected, resuspended in Opti-MEM. 50,000 cells/well and added to the compound plates. After a short spin (1200 rpm for 1 min), the plates were incubated at 37° C. for 1 hour. The cells were activated by adding 15 μL of IMMUNOCULT™ Human CD3/CD28 T Cell Activator (STEMCELL Technologies) diluted in Opti-MEM. After 24 h of incubation at 37° C., aliquots of culture supernatants were transferred to OptiPlate-384 (PerkinElmer) microplates. The level of JIL-2 secretion in the supernatants was then determined using the IL-2 (human) AiphaLISA Detection Kit (PerkinElmer) according to the manufacturer's recommendations. The AiphaLISA signal was measured using an EnVision plate reader (PerkinElmer). EC50 values were determined by fitting the data to a standard 4-parameter logistic equation. See Table 3 for data for select compounds (IL-2 Secretion (EC50)).

Sequence of Cbl-b (Q13191 whole entry, species assumed): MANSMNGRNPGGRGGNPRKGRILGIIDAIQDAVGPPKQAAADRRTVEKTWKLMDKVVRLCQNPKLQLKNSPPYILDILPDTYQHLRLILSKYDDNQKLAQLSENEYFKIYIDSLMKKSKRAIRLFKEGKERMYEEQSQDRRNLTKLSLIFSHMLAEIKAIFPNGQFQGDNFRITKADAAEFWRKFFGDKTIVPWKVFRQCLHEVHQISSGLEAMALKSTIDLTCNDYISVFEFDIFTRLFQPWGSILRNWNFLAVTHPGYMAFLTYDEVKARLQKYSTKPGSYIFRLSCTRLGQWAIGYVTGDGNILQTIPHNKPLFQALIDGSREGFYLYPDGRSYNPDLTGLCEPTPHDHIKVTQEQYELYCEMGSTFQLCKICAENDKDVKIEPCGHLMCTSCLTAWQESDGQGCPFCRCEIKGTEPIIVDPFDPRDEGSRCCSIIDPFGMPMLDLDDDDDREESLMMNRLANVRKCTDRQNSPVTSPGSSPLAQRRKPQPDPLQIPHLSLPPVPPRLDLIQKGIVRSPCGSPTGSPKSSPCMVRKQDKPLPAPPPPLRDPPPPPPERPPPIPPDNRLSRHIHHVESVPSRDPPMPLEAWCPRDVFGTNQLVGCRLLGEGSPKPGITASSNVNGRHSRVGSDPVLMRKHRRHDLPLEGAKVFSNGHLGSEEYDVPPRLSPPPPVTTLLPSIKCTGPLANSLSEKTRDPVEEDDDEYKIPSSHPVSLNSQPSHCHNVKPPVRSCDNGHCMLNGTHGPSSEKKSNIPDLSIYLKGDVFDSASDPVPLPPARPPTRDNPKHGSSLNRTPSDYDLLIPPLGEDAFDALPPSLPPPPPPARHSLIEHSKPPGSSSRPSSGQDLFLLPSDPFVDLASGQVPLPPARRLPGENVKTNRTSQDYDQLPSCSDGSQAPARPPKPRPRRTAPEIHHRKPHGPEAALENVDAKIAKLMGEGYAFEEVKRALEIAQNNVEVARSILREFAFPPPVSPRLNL

SMILES	IC50 [1] [nM]	EC50 [2] [nM]
C[C@H]1CCCN(Cc2cc3c(C#N)cn(-c4cc(-c5ccc(F)cc5C(=O)N5CC(F)C5)cc(C5CC5)n4)c(=O)c3[nH]2)C1 [Example 21, 2-{[(S)-3-methyl-1-piperidyl]methyl}-6-(6-cyclopropyl-4-{4-fluoro-2-[(3-fluoro-1-azetidinyl)carbonyl]phenyl}-2-pyridyl)-7-oxo-1,6-dihydro-1,6-diaza-4-indenecarbonitrile]	< 100	< 100
C[C@H]1CCCN(Cc2cc3c(C#N)cn(-c4cc(C#N)cc(-c5ccc(F)cc5C(=O)N5CC(F)C5)c4)c(=O)c3[nH]2)C1 [Example 22, 2-{[(S)-3-methyl-1-piperidyl]methyl}-6-{5-cyano-4′-fluoro-2′-[(3-fluoro-1-azetidinyl)carbonyl]-3-biphenylyl}-7-oxo-1,6-dihydro-1,6-diaza-4-indenecarbonitrile]	< 100	100 to 1000
C[C@H]1CCCN(Cc2cc3c(C4CC4)cn(-c4cc(-c5ccc(F)cc5C(=O)N5CCC5)cc(C5CC5)n4)c(=O)c3[nH]2)C1 [Example 7, 2-{[(S)-3-methyl-1-piperidyl]methyl}-6-(4-{2-[(1-azetidinyl)carbonyl]-4-fluorophenyl}-6-cyclopropyl-2-pyridyl)-4-cyclopropyl-1,6-dihydro-1,6-diaza-7-indenone]	< 100	< 100
Cc1cn(-c2cc(-c3ccc(F)cc3C(=O)N3CC(F)C3)cc(C3CC3)n2)c(=O)c2[nH]c([C@H]3CCCN3)nc12 [Example 49, 5-[6-cyclopropyl-4-[4-fluoro-2-(3-fluoroazetidine-1-carbonyl)phenyl]pyridin-2-yl]-7-methyl-2-[(2R)-pyrrolidin-2-yl]-3H-imidazo[4,5-c]pyridin-4-one]	< 100	> 5000
C[C@H]1CCCN(Cc2cc3ncn(-c4cc(-c5ccc(F)cc5C(=O)N5CC(F)C5)cc(C5CC5)n4)c(=O)c3[nH]2)C1 [Example 25, 2-{[(S)-3-methyl-1-piperidyl]methyl}-6-(6-cyclopropyl-4-{4-fluoro-2-[(3-fluoro-1-azetidinyl)carbonyl]phenyl}-2-pyridyl)-1,6-dihydro-1,4,6-triaza-7-indenone]	< 100	< 100
COCCNCc1cc2ncn(-c3cc(-c4ccc(F)cc4C(=O)N4CC(F)C4)cc(C4CC4)n3)c(=O)c2[nH]1 [Example 35, 3-[6-cyclopropyl-4-[4-fluoro-2-(3-fluoroazetidine-1-carbonyl)phenyl]pyridin-2-yl]-6-[(2-methoxyethylamino)methyl]-5H-pyrrolo[3,2-d]pyrimidin-4-one]	< 100	< 100
CCOCCNC(=O)c1cc(F)ccc1-c1cc(C2CC2)nc(-n2cc(C3CC3)c3cc(CN4CCC[C@H](C)C4)[nH]c3c2=O)c1 [Example 2, 2-[2-cyclopropyl-6-[4-cyclopropyl-2-[[(3S)-3-methylpiperidin-1-yl]methyl]-7-oxo-1H-pyrrolo[2,3-c]pyridin-6-yl]pyridin-4-yl]-N-(2-ethoxyethyl)-5-fluorobenzamide]	100 to 1000	1000 to 5000
C[C@H]1CCCN(Cc2cc3c(C4CC4)cn(-c4cc(-c5ccc(F)cc5C(=O)N5CC(F)C5)cc(C5CC5)n4)c(=O)c3[nH]2)C1 [Example 10, 2-{[(S)-3-methyl-1-piperidyl]methyl}-4-cyclopropyl-6-(6-cyclopropyl-4-{4-fluoro-2-[(3-fluoro-1-azetidinyl)carbonyl]phenyl}-2-pyridyl)-1,6-dihydro-1,6-diaza-7-indenone]	< 100	< 100
C[C@H]1CCCN(Cc2cc3c(C4CC4)cn(-c4cc(-c5ccc(F)cc5C(=O)N(C)C)cc(C5CC5)n4)c(=O)c3[nH]2)C1 [Example 1, 2-[2-cyclopropyl-6-[4-cyclopropyl-2-[[(3S)-3-methylpiperidin-1-yl]methyl]-7-oxo-1H-pyrrolo[2,3-c]pyridin-6-yl]pyridin-4-yl]-5-fluoro-N,N-dimethylbenzamide]	< 100	< 100
